Values of other authors as cited in patent publication US5283250A, “Quinolinyl/quinolinylalkyl-N-terminal amino hydroxy” (G. D. Searle & Co., priority 1991, dated 1994).
Square brackets hold non-standard residues; d marks the D form. Peptide text beside a SMILES is read from it. * marks the point of attachment. Sta = CC(C)C[C@H](N)[C@@H](O)CC(=O)O; Isovaleryl = CC(C)CC(=O)*

Legend:
[1] = system: renin; settings: Umezawa et al 1970
[2] = system: pepsin; settings: Umezawa et al 1970
[3] = system: cathepsin D; settings: Umezawa et al 1970
[4] = system: hog renin; settings: after injection of hog renin into nephrectomized rats; Gross et al 1971
[5] = system: acid proteases

## CC(C)CC(=O)N[C@H](C(=O)N[C@H](C(=O)N[C@@H](CC(C)C)[C@@H](O)CC(=O)N[C@@H](C)C(=O)N[C@@H](CC(C)C)[C@@H](O)CC(=O)O)C(C)C)C(C)C [pepstatin] (Isovaleryl-VV[Sta]A[Sta]-OH)
[1]
  inhibition of renin (in words): inhibitor
[2]
  inhibition of pepsin (in words): inhibitor
[3]
  inhibition of cathepsin D (in words): inhibitor
[4]
  blood pressure in vivo (in words): reduce blood pressure in vivo
[5]
  inhibition of acid proteases in addition to renin (in words): inhibiting acid proteases in addition to renin
